Data reported in patent US20180042929A1, “USE OF SUBSTITUTED 2,3-DIHYDROIMIDAZO[1,2-C]QUINAZOLINES” (Bayer Pharma Aktiengesellschaft, priority 2015, published 2018).

Key:
[1] = test system: HEC-1B xenograft tumor model; assay type: in vivo; conditions: 10 mg/kg Q14D i.p.
Description: The in vivo efficacy was evaluated in tumor xenograft models in nude mice with established human tumor cell lines at the MTD and sub-MTD dosages. Tumor cells were cultivated according to ATCC protocols in recommended media contained 10% FCS. Cells were harvested for transplantation in a subconfluent (70%) state. The volume of implantation was 100 μl for mice. When the tumors were approximately in size of 25-50 mm^2, the animals were randomized to treatment and control groups and treatment was started. Treatment of each animal was based on individual body weight. The optimal formulation, application route and schedule were used for each compound (see table 2). Oral administration (p.o.) was carried out via a gastric tube. The oral application volumes were 10 ml/kg and the intravenous application volumes were 10 ml/kg. Tumor area (product of the longest diameter and its perpendicular) using a calliper. The animal body weight was monitored as a measure for treatment-related toxicity. Measurement of tumor area and body weight was performed 2-3 times weekly. […] Treatment responses were evaluated by means of the clinically-used RECIST criteria (complete response, partial response, stable disease and progressive disease) and response rates were calculated accordingly (RR=number of animals with complete and partial response).

[2] = test system: MFE-280 xenograft tumor model; test: In vivo efficacy in MFE-280 xenograft tumor model; design: species or system nude mice; conditions: doxorubicin group
Description: The in vivo efficacy was evaluated in tumor xenograft models in nude mice with established human tumor cell lines at the MTD and sub-MTD dosages. Tumor cells were cultivated according to ATCC protocols in recommended media contained 10% FCS. Cells were harvested for transplantation in a subconfluent (70%) state. The volume of implantation was 100 μl for mice. When the tumors were approximately in size of 25-50 mm^2, the animals were randomized to treatment and control groups and treatment was started. Treatment of each animal was based on individual body weight. The optimal formulation, application route and schedule were used for each compound (see table 2). Oral administration (p.o.) was carried out via a gastric tube. The oral application volumes were 10 ml/kg and the intravenous application volumes were 10 ml/kg. Tumor area (product of the longest diameter and its perpendicular) using a calliper. The animal body weight was monitored as a measure for treatment-related toxicity. Measurement of tumor area and body weight was performed 2-3 times weekly. T/C ratios (Treatment/Control) were calculated with final tumor areas. Treatment responses were evaluated by means of the clinically-used RECIST criteria (complete response, partial response, stable disease and progressive disease) and response rates were calculated accordingly (RR=number of animals with complete and partial response).

[3] = dose not printed (i.p. Q14D per Table 2)

With `COc1cccc2c1C(=O)c1c(O)c3c(c(O)c1C2=O)C[C@@](O)(C(=O)CO)C[C@@H]3O[C@H]1C[C@H](N)[C@H](O)[C@H](C)O1` [Doxorubicin] the “PD (progressive disease, number of tumors)” value [1] was 6, the Response rate [1] was 0% and the “T/C area (Treatment/Control ratio, mean tumor areas)” value ([1]; study end) was 0.56. For the same molecule, the “T/C weight (Treatment/Control ratio, final tumor weights)” value ([1]; study end) was 0.48, the “CR (%)” value ([2]; dose not given) was 0% and the “PD (%)” value ([2]; dose not given) was 37.5%. The “PR (%)” value ([2]; dose not given) was 12.5%, the “RR (%)” value ([2]; dose not given) was 12.5% and the “T/C (tumor area)” value [2, 3] was 0.51. For the same molecule, the “T/C (tumor weight)” value [2, 3] was 0.39.
